IC50 data for three compounds are collected here from US20080312206A1, “Chemical Compounds-149” (AstraZeneca AB, priority 2005, published 2008).

Each structure is given as a SMILES string.

This assay addresses T1, CSF-1R (Homo sapiens, UniProt P07333).
T1 construct: amino acids 568-912, GeneBank ID NM_005211; His; made in house; host or cells: baculovirus infected SF+Express insect cells
T1 sequence (P07333 568-912): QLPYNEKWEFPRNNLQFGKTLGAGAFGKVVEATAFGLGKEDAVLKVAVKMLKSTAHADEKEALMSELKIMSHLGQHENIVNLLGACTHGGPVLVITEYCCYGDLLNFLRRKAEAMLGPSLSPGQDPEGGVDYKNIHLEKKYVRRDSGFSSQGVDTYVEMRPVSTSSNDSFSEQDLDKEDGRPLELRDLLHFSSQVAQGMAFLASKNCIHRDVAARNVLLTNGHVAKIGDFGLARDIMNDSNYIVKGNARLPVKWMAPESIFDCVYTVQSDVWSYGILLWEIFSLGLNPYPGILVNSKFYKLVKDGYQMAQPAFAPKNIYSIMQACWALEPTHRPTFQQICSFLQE
The assay can be described thus: CSF-1R In Vitro AlphaScreen Assay. Format: biochemical. The settings on record: purified His-tagged kinase domain of CSF-1R, pEY substrate, 90 μM ATP. The procedure:
CSF-1R In Vitro AlphaScreen Assay
Activity of purified CSF-1R was determined in vitro using an Amplified Luminescent Proximity Homogeneous Assay (ALPHA)(Perkin Elmer), which measures phosphorylation of the CSF-1R substrate, biotinylated poly-glutamine-tyrosine peptide (pEY-HTRF CisBio 61GT0BLD), as described below. The His-tagged kinase domain of CSF-1R (i.e., amino acids 568-912, GeneBank ID NM_005211; (see page 25 lines 13-19 of WO 2006/067445 for the sequence listing)) was purified from baculovirus infected SF+Express insect cells (1.4×10^6 cells/ml), French pressed and chromatographed through subsequent Qiagen Ni-NTA, Superflow Mono Q HR 10/10, and Superdex 200 SEC columns. Typical yield was 322 ug/l of cell pellet at >95% purity.
The phosphorylation of the CSF-1R substrate in the presence and absence of the compound of interest was determined. Briefly, 0.2 pM of purified CSF-1R, 5 nM pEY substrate, and compound were preincubated in 1× buffer for 30 minutes at 25° C. Reactions were initiated with addition of 90 μM adenosine triphosphate (ATP) in 1× buffer and incubated at 25° C. for 40 minutes and reactions stopped by addition of 5 μl of detection mix consisting of 136 mM NaCl, 102 mM ethylenediamine tetraacetic acid, 1.65 mg/ml BSA, 40 ug/ml Streptavidin donor beads (Perkin Elmer 6760620M), 40 ug/ml pEY100 acceptor beads (Perkin Elmer 6760620M). Plates were incubated at 25° C. for 18 hours in the dark. Phosphorylated substrate was detected by an EnVision plate reader (Perkin Elmer) 680 nm excitation, 520-620 nm emission. Data was graphed and IC50s calculated using Excel Fit (Microsoft).
A general note: In Alpha technology, singlet oxygen from a donor bead excites a nearby acceptor bead.
Consider `CC(C)c1ncc(NC(=O)c2cc(NC(=O)c3cc(F)cc(C(F)(F)F)c3)ccc2Cl)s1` [Example 21, 2-Chloro-5-{[3-fluoro-5-(trifluoromethyl)benzoyl]amino}-N-(2-isopropyl-1,3-thiazol-5-yl)benzamide], for which the IC50 (in general, the concentration that gives 50% inhibition) amounted to 13 nM. As to `Cc1cc(C)cc(C(=O)Nc2ccc(Cl)c(C(=O)Nc3cnc(C(C)C)s3)c2)c1` [Example 20, 2-Chloro-5-[(3,5-dimethylbenzoyl)amino]-N-(2-isopropyl-1,3-thiazol-5-yl)benzamide], the midpoint of inhibition, the IC50, lay at 10 nM. `CON(C)C(=O)c1ncc(NC(=O)c2cc(NC(=O)c3cccc(C(C)(C)C#N)c3)ccc2C)s1` [Example 15, 5-[(5-{[3-(1-Cyano-1-methylethyl)benzoyl]amino}-2-methylbenzoyl)amino]-N-methoxy-N-methyl-1,3-thiazole-2-carboxamide] gave an IC50 of 7 nM.
